Data: a melting point compilation (Tetko et al.; mined from patent text by program, amines drawn as free bases though some values may be those of a salt)

melting point [°C]	Compound
95 to 96	CS(=O)(=O)c1cccnc1Oc1ccc(Cl)c(Cl)c1
235 to 237	CCOC(=O)c1cnn2c1c(N)nc1ccccc12
47 to 49	CC(C)[C@](C)(O)C(=O)O
> 300	CCn1c(=O)c(=O)[nH]c2cccc(C)c21
255 to 257	CCOC(=O)c1cc2c3n(ccc-2n1)CC(c1ccccc1)=N3
59 to 64	CSCC[C@H](NC(=O)[C@@H]1CS[C@H](c2ccccc2O)N1C(=O)CCSC(C)=O)C(=O)O
125 to 128	O=C(Nc1ccccc1)N1C(=O)C2(CCCCC2)N(O)C12CCCCC2
224 to 225	O=C(O)c1ccc(C#Cc2ccccc2)cc1
75	Cn1[nH]c(=O)n(-c2ccc(Cl)cc2F)c1=S
130 to 132	CCOc1nc(OCC)c([N+](=O)[O-])c(N2CCS(=O)CC2)n1
230	CN(C)CCNc1c(-c2ccccc2)c(=O)[nH]c2cc(Cl)ccc12
155 to 160	Nc1nc2c(s1)CCN(CC=Cc1c[nH]c3ccccc13)CC2
64.4 to 65.4	CCCCCCCCCCc1ccc2cc(SC)c(O)cc2c1
77 to 78	O=C(Nc1ccc(OCCN2CCOCC2)c2ccccc12)c1cccc(-c2cccnc2)c1
71 to 73	CCCCc1cc2cc(NC(C)=O)ccc2o1
132 to 133	CCCCCOc1cc2c(cc1C(=O)Oc1ccc(C(=O)O)cn1)C(C)(C)CCC2(C)C
120 to 122	CCOCc1nc2c(N)nc(C)c(C)c2n1NC1CCOCC1
165 to 166	O=C(NCC1CC2CCC1C2)n1cc(F)c(=O)[nH]c1=O (stereo not drawn)
175 to 177	NC(=O)C(Cc1ccccc1)NC(=O)Nc1n[nH]c(=S)s1 (stereo not drawn)

melting point [°C]	Compound
180 to 183	COc1nc(C)cnc1NS(=O)(=O)c1cccnc1-c1ccc(I)cc1
> 300	CCCn1c(=O)c(=O)[nH]c2cc([N+](=O)[O-])c(-n3ccc(=O)cc3)cc21
154	COc1cc(-c2nc3ccccc3n2Cc2ccccc2F)cc(OC)c1OC
152 to 154	Cc1ncc(CN2CC=C(CCc3ccccc3)CC2)c(N)n1
136 to 137	CC(C)C(SC(=O)c1ccccc1)C(=O)NCC(=O)O (stereo not drawn)
117 to 122	Cc1nc(C)c(C(=O)Nc2ccc(-n3nc(C(F)(F)F)cc3C3CC3)cc2)s1
141 to 142	CN1C(CCCCCBr)Nc2cc(Cl)c(S(=O)(=O)NCc3ccccc3)cc2S1(=O)=O (stereo not drawn)
219 to 220	COc1ccnc(CCc2nc3cc(-c4ccc(S(=O)(=O)Nc5ccc(C)cc5)cc4)cnc3[nH]2)c1
110 to 112	COc1ccc(C(=O)NNC(=O)c2occ(-c3ccccc3)c2-c2ccccc2)cc1F
192 to 193	N#CCCNC(=O)c1cccc(-c2cccc3nc(Cc4cccc(C(F)(F)F)c4)cn23)c1
225 to 227	C#CCOCCn1cnc2c(N)nc3ccccc3c21
114 to 115	Cc1ccc(Oc2cccc(-c3cccc(C(=O)NCCC#N)c3)n2)c(C)c1
145 to 148	CC(=O)CCN(CCNC(=O)OC(C)(C)C)c1nc2cc(Cl)ccc2o1
> 250	Nc1nc2cccnc2c2c1nc(O)n2Cc1ccccc1
151 to 154	O=c1c(-c2ccccc2)c(CNc2ncnc3[nH]cnc23)oc2ccc(Br)cc12
225 to 229	O=C(O)c1cc(Br)cc([N+](=O)[O-])c1Br
274 to 277	Cc1nn(-c2ccccn2)c2[nH]c3cc(F)c(F)cc3c(=O)c12
186	CC(=O)OCCc1ccc(-c2ccc(=O)[nH]n2)cc1
139 to 141	CCc1cccc(CC)c1N(C=O)CC(=O)O

Second part, the compound before the results:

Compound	melting point [°C]
N#Cc1ccc(OCCCCCCOc2cccc(-c3cc4ccc(C#N)cc4o3)c2)cc1	125 to 127
CCOC(=O)c1nc(C=Cc2cccc(Cl)c2)oc1C	116 to 117
COc1ccc2c(C(=O)O)cc3cc(OC)c(OC)cc3c2c1	241 to 243
C[Si](C)(C)CCCNC(=O)n1cc(F)c(=O)[nH]c1=O	146 to 149
Nc1nc(=O)n(C(=O)OCc2ccccc2)cc1F	212 to 215
O=C(NC1CCN(C(=O)OCCC2(C(=O)NCC(F)(F)F)c3ccccc3-c3ccccc32)CC1)c1ccccc1Oc1ccccc1	68 to 73
COC=C1C(=O)NC(=O)c2ccccc21	260 to 261
CCNc1ncn(Cc2ccc(OC)c(OC3CCCC3)c2)c2nc(C(C)C)nc1-2	205 to 207
Cc1nc2ccccc2n1CCc1ccccc1	104 to 106
Nc1nc(O)nc2nc(-c3ccco3)nn12	> 300
N#Cc1cnc2cc(/C=C/CCCCN3CCOCC3)ccc2c1Nc1ccc(Cl)cc1Cl	139 to 140
O=c1cc(-c2ccc(Cl)cc2)oc2ccc(OCCCCCCN3CCC(O)CC3)cc12	127 to 128
Cc1cc([N+](=O)[O-])cc(C(=O)Nc2nnn[nH]2)n1	> 300
O=C(O)c1cnn2c(C(F)(F)F)cc(-c3ccc(F)c(F)c3)nc12	274
CCOC(=NC(=O)c1ccco1)N1Cc2ccccc2-c2ccccc2C1	87 to 92
O=C(O)c1cn(-c2cccc(Br)c2)cn1	205 to 207
COC(=O)c1oc2ccc(OC)cc2c1OCc1ccccc1	81 to 84
CC(=O)OC1C(Oc2cc(C)cc(O)c2C(=O)CCc2ccc3occc3c2)OC(CO)C(O)C1O (stereo not drawn)	160
CC(C)(C)OC(=O)/C(=C/c1ccccc1)C(=O)c1ccccc1O	109 to 110
CC1(C)OC(=O)Nc2ccc(OCCCCS(=O)c3ccc(Cl)c(Cl)c3)cc21 (stereo not drawn)	138 to 139
CC(C)(C)C(=O)c1ccc(C(=O)N[C@@H](Cc2ccccc2)C(N)=O)cc1	120 to 123
COc1ccc(S(=O)(=O)N(C)C)cc1C(=O)NCc1ccc(OCCN(C)C)cc1	99.5 to 100

Compound	melting point [°C]
CCC(Oc1cccc(N(C)C)c1)C(=O)OC1CC(O)C=C2C=CC(C)C(CCC3CC(O)CC(=O)O3)C21 (mixture of isomers)	124 to 126
COc1ccc2c(c1OC)CC(c1ccccc1)C=C2C#N (stereo not drawn)	109 to 110
COC(=O)c1ccccc1-c1cc(-c2ccc(OC)cc2)n(C(C)=O)n1	119 to 121
C=CCc1cc(C(C)=O)c(O)cc1OCCCCC(=O)O	110 to 111
CN1CCC(=C2c3ccsc3C(O)Cn3ccnc32)CC1 (stereo not drawn)	230
CC(C)(C)NCC(O)COc1ccccc1Cc1cccc2[nH]ccc12 (stereo not drawn)	78
C#CC[C@@H](NCCCN1C(=O)c2ccccc2C1=O)c1nc2cc(Cl)ccc2c(=O)n1Nc1ccccc1	78 to 80
O=C(c1ccccc1)N1CC(=O)N(CCc2ccccc2)C(=O)C1	102
CCOC(=O)c1c(C(F)(F)F)nc(C(F)F)c(C(=O)OC)c1F	40 to 41
O=C(NCCCCCNC(=O)c1ccc2c(c1)OCO2)c1ccc2c(c1)OCO2	158 to 160
Cc1ccc(S(=O)(=O)n2ccc3cc(F)ccc32)cc1	106 to 108
Cc1ccc(Oc2ccccc2-n2cnnn2)c(O)c1	157 to 160
CCOCc1nc2c(N)nc(C)cc2n1CCCCNC(=O)C(C)C	170 to 172
Cc1n[nH]c2cc(-c3nn(C(C)c4oc5ccccc5c(=O)c4-c4cccc(F)c4)c4ncnc(N)c34)ccc12 (stereo not drawn)	158 to 161
CNC(=S)NCc1ccc(Br)nc1	117 to 118
CCC1(CC)OC(c2ccc(S(C)(=O)=O)cc2)=C(c2ccccc2)C1=O	139 to 140
Cc1ncc(C#N)c(Cl)c1I	120 to 122
CCCCCCC(C(=O)OCC)n1cnc2c([N+](=O)[O-])cccc21 (stereo not drawn)	86 to 89
COc1ccc(-c2nc(-c3ccc4c(c3)N(C)C(=O)CS4)cs2)cc1OC	144
COc1ccc2c(c1)cc(Cc1cc3cc(OC)ccc3n1S(=O)(=O)c1ccccc1)n2S(=O)(=O)c1ccccc1	159 to 160
FC(F)(F)c1ccc(/C=C/c2cc(Cl)cc(Cl)c2)cc1	98 to 100
CCOC(=O)N1CCC(Nc2nc3ccccc3[nH]2)CC1	231 to 233

Compound	melting point [°C]
CCOC(=O)c1cc(=O)c2cc3c(=O)cc(C(=O)OCC)oc3cc2[nH]1	201 to 202
O=S1(=O)N(CCCN2CC=C(c3c[nH]c4ccc(F)cc34)CC2)c2cccc3c2N1CCC3	178
CC(N)CN(C)C(=O)c1ccccc1 (stereo not drawn)	102
CCOc1ccccc1NC(N)=S	174
NC(=O)c1csc(-c2cccc(N)c2)n1	173 to 174
COc1cc(CCCC2OCCO2)ccc1OCc1nc(-c2ccccc2)oc1C	74 to 75
CCCCSc1nc(N)c(C#N)s1	115 to 117
COc1cc(O)c(C(=O)c2ccccc2)cc1CN(C)C	69
CCOC(=O)c1c(N2CCN(C(=O)c3cccs3)CC2)c2cccnc2n(Cc2ccccc2)c1=O	168
COC(=O)Nc1cc(Cl)nc(N)n1	225 to 226
COC(=O)c1c(C)[nH]c(C)c1C1=CC(=O)c2ncccc2C1=O	237 to 241
Cc1noc(NS(=O)(=O)c2ccccc2-c2ccc(-c3ccno3)cc2)c1C	85 to 90
CC#Cc1ncccc1C(=O)c1ccccc1Cl	45 to 49
O=C1Cc2c(Cl)cccc2Sc2cc(F)ccc21	109 to 111
NS(=O)(=O)c1cccc(-c2cccc(-c3nc(-c4ccc(Cl)c(Cl)c4)cc(C(F)(F)F)n3)c2)c1	241
O=C(O)c1cccc(NC(=O)C(COC2CCCCO2)NS(=O)(=O)c2ccc(Cl)cc2)c1 (stereo not drawn)	84 to 124
CCCCCCCCCCCCCCc1ccc(OCC(CO)OCc2ccccc2)c(CCCCCC)c1 (stereo not drawn)	32 to 33
CC1C(=O)NCC1C(N)=O (stereo not drawn)	169 to 171
CON=CC1=CCCN(C(=O)Oc2ccc(C(C)(C)CC(C)(C)C)cc2)C1	91 to 93
C=C(C)COc1ccc2c(C)cc(=O)oc2c1C(=O)C=Cc1cc(OC)c(OC)c(OC)c1	128 to 130
CCOCC(=O)N1Cc2cc(Cl)ccc2CC(C)C1=O (stereo not drawn)	123 to 124
